The values below come from ChEMBL document CHEMBL1146944, “Synthesis of Pseudomonas quorum-sensing autoinducer analogs and structural entities required for induction of apoptosis in macrophages” (2006).

The assay deals with P388. Briefly: Induction of apoptosis in P388D1 cell line. In kind it is functional, Mus musculus, DBA/2. Details: concentration or dose not given beside the values.

`O=C(CCCCCCCCCc1ccccc1)CC(=O)N[C@H]1CCOC1=O` showed an Activity of 14.5%.

The compound `O=C(CCCCCCCc1ccccc1)CC(=O)N[C@H]1CCOC1=O` came in with an Activity of 25.2%. In the case of `O=C(CCCCCCCC1CC1)CC(=O)N[C@H]1CCOC1=O` it was 38.7%; in that of `CCCCCCCCCC(=O)CC(=O)Nc1ccccc1O`, 109.6%; in that of `O=C(CCCCCC1CC1)CC(=O)N[C@H]1CCOC1=O`, 122.9%.

Take `CCCCCCCCCC(=O)CC(=O)N[C@@H](C)C(=O)OC`: the Activity came out at 111.2%. As for `CCCCCCCCC(=O)CCC(=O)N[C@H]1CCOC1=O`, the figure is 115.6%. For `O=C(CCCCCCCCCCCc1ccccc1)CC(=O)N[C@H]1CCOC1=O`, the Activity is 12.2%.

On to `CCCCC(=O)CC(=O)N[C@H]1CCOC1=O`, for which the Activity was 111%.

`CCCC(=O)N[C@H]1CCOC1=O` had an Activity of 100.4%. As for `CCCCCCCC(=O)CCCC(=O)N[C@H]1CCOC1=O`, the figure is 97.7%; as for `O=C(O)CCC(=O)OCCCCCCCCCC(=O)CC(=O)N[C@H]1CCOC1=O`, 114%; as for `CCCCCCCCCC(=O)CC(=O)N[C@H]1CCCC[C@@H]1O`, 96.2%.

In the case of `CCCCCCCCCC(=O)CC(=O)N[C@@H]1CCOC1=O`, the Activity was found to be 105%.

As to `CCCCC(=O)N[C@H]1CCOC1=O`, the Activity worked out at 101.8%. In the case of `O=C(CCCCCc1ccccc1)CC(=O)N[C@H]1CCOC1=O` it was 122%. In the case of `CCCCCCCC(=O)CC(=O)N[C@H]1CCOC1=O` it was 107.7%; in that of `CCCCCCCCCCCC(=O)CC(=O)N[C@H]1CCOC1=O`, 14.8%; in that of `CCCCCCCCCC(=O)CC(=O)N[C@H]1CCOC1=O`, 31.9%. As for `CCCCCCCCCCCC(=O)N[C@H]1CCOC1=O`, the figure is 91.1%; as for `O=C(CCCCCCCCCO)CC(=O)N[C@H]1CCOC1=O`, 109.5%.
